Experimental findings from article PMC11359809, “Probing the molecular basis for signal transduction through the Zinc-Activated Channel (ZAC)” (Biochemical pharmacology, 2021) are described below.

“And” between values parts separate entries of the source, which are not always exact repeats. Equal values may be shown once.

One experiment concerns m5-HT3A^FPR/ZAC. The experiment is described as follows: TEVC in oocytes, Cys-loop modified chimera m5-HT3A^FPR/ZAC. The note with it: data not shown. Type of experiment: cell-based, mouse/human. The method, then: (§1) The recordings were performed at room temperature.
To probe the effects of exchanges of regions involved in the ECD/TMD cross-talk between the two CLRs fused in a chimera on its functionality, we constructed 12 additional chimeras, three for each of the four original chimeras (Fig. 1A). Inspired by the similar modifications that have been introduced in a functional GLIC/hα1-Gly chimera, we swapped one or both of two specific regions: the three-residue FPX (Phe-Pro-X) motif in the Cys-loop of the ECD (FPR, FPF and […] in ZAC, m5-HT3A and hα1 GlyR, respectively), which is known to protude into proximity of the M2-M3 linker during the ECD/TMD cross-talk, and the extracellular C-terminus of the TMD, which differs substantially in both amino acid sequence and length between ZAC and the two classical CLRs combined with it in the chimeras (Fig. 4B). […] In light of this, it was not surprising that the four chimeras comprising exchanges of both the FPX motif and the C-terminus also were non-functional (data not shown).

A further experiment deals with T1, WT m5-HT3AR (Mus musculus, UniProt P23979).
T1 construct: expressed in transfected cells; host or cells: Xenopus oocytes injected with cRNA (pUNIV vector)
T1 sequence (P23979 24-489): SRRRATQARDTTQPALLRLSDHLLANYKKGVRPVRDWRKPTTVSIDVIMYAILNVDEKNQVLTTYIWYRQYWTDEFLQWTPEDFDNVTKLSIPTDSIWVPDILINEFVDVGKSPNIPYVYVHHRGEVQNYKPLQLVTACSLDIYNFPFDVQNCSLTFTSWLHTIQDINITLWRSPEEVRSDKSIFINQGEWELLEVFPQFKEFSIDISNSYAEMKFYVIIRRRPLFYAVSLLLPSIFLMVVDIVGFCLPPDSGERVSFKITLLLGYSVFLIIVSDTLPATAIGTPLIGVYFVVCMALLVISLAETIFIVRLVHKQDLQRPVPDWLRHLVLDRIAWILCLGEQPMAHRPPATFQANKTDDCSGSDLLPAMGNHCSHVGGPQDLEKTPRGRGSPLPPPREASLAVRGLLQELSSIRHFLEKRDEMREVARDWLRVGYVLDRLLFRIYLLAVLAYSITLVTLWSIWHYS
The experiment is described as follows: TEVC in Xenopus oocytes expressing WT m5-HT3AR. Type of experiment: cell-based. The method, then:
as §1
(§2) Analysis of the data from the TEVC recordings were performed using Clampfit software version 10.5 (Molecular Devices, Crawley, UK) and GraphPad Prism version 7.0c (GraphPad Software, La Jolla, CA). Unless otherwise stated, the inward currents induced by agonists in oocytes were normalized to the maximal response elicited by a specific agonist (agonist Imax) on each oocyte. Concentration-response and concentration-inhibition curves were fitted in GraphPad Prism by nonlinear regression using the equation for sigmoidal dose-response with variable slope. Each data point represents the mean ± S.E.M. value of recordings performed on at least five oocytes in total from at least two different batches. For the data where statistical analysis was performed, a one-way ANOVA was used. The null hypothesis was rejected at P < 0.05, and the differences between the means were analyzed by Tukey’s multiple comparisons test.

A further experiment deals with T2, m5-HT3A/ZAC (Mus musculus / Homo sapiens, UniProt P23979).
T2 sequence (P23979 24-246): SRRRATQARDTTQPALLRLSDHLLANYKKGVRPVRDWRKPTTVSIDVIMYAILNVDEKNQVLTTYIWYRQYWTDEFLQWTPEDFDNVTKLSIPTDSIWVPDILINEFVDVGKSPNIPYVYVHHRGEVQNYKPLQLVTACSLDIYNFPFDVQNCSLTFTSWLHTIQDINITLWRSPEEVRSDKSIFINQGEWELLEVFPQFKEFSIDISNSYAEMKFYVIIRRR
T2 sequence (Q401N2 231-412 partner): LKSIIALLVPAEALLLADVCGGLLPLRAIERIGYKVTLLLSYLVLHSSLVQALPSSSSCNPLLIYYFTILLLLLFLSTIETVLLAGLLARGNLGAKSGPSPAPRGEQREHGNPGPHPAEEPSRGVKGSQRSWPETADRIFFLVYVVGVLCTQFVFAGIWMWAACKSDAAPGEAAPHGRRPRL
As to the kind of experiment: TEVC in oocytes expressing m5-HT3A/ZAC chimera. Type of experiment: cell-based.
Text: (§3) The construction of the ZAC-pUNIV plasmid (encoding for the human WT ZAC that contains a Thr in position 128) has been described previously. The m5-HT3A and hα1 GlyR cDNAs were subcloned from their original vectors into pUNIV (Addgene, Watertown, MA) using NheI and EcoRI as restriction enzymes. […] The C-terminus modifications in these four chimeras were introduced in their cDNAs in the same way. Point mutations were introduced in cDNAs by use of the QuikChange mutagenesis kit (Stratagene, San Diego, CA). The validity and absence of unwanted mutations in the constructed cDNAs was verified by DNA sequencing (Macrogen Europe, Amsterdam, The Netherlands).
(§4) All cDNAs used for cRNA synthesis were inserted in the pUNIV vector. The cDNAs were linearized and subsequently transcribed and capped using the mMessage mMachine T7 RNA transcription kit (Ambion, Waltham, MA). […] Oocytes were incubated in a sterile modified Barth’s solution [88 mM NaCl, 1 mM KCl, 15 mM HEPES (pH 7.5), 2.4 mM NaHCO3, 0.41 mM CaCl2, 0.82 mM MgSO4, 0.3 mM Ca(NO3)2, 100 U/ml penicillin and 100 μg/ml streptomycin] at 16–18 °C. Based on experience gained with WT ZAC in a recent study, all TEVC recordings were performed two days after cRNA injection.
(§5) On the day of the TEVC recording, all compound dilutions were prepared in a saline solution [115 mM NaCl, 2.5 mM KCl, 10 mM MOPS (pH 7.5), 1.8 mM CaCl2, 0.1 mM MgCl2], and pH was adjusted to 7.5 (if needed). Oocytes were placed in a recording chamber continuously perfused with this saline solution, and the compounds were applied in the perfusate. Both voltage and current electrodes were agar-plugged with 3 M KCl with a resistance of 0.2–2.0 MΩ. Oocytes were voltage-clamped at −50 mV (except in the studies of the chimeras and their parent receptors where they were clamped at −60 mV, section 3.1), by a Gene Clamp 500B amplifier, and current signals were digitized by a Digidata 1322A (both from Axon Instruments, Union City, CA). Currents were recorded using pCLAMP 10 (Molecular Devices, Sunnyvale, CA). The recordings were performed at room temperature.
(§6) In all recordings, compounds or compound combinations were applied in the bath until the peak current decayed to a steady state (up to 30 s). […] The antagonist properties of compounds were determined by pre-application of the compound to the perfusate for 30 s followed by co-application of the compound and the agonist. In all recordings, washes of 1–5 min were executed between the ligand applications, the length of the washes depending on the agonist concentrations used and on the return to baseline current amplitude.
as §2

For the next experiment, the system named is hα1-Gly/ZAC. The experiment is described as follows: TEVC in oocytes expressing hα1-Gly/ZAC chimera. Format: cell-based, human. The note with it: 1 mM Gly; n = 5. The method, then: as §1, §2
Initially, we constructed four chimeric subunits fusing the ZAC ECD or TMD-ICD with the complementary domains from either the m5-HT3A or the hα1 GlyR subunit: ZAC/m5-HT3A, m5-HT3A/ZAC, ZAC/hα1-Gly and hα1-Gly/ZAC (Fig. 1A). […] (Fig. 1A).

The next experiment has as its target T3, WT hα1 GlyR (Homo sapiens, UniProt P23415).
T3 construct: expressed in transfected cells; host or cells: Xenopus oocytes injected with cRNA (pUNIV vector)
T3 sequence (P23415 29-457): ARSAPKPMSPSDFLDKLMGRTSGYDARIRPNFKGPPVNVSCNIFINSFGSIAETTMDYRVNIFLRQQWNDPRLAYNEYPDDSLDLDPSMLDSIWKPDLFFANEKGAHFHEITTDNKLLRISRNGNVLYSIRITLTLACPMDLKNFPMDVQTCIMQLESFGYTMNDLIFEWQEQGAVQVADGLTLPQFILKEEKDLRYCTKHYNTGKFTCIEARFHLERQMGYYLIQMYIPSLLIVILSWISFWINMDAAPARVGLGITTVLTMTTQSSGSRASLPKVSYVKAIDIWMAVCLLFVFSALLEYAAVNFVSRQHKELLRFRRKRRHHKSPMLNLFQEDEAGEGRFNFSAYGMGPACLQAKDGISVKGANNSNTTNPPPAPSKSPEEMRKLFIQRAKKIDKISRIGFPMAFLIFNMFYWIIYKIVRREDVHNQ
Format: cell-based.
Text: as §3, §4, §5, §6
as §2, with “For the data where statistical analysis was performed, a one-way ANOVA was used.” left out

The next experiment has as its system hα1-Gly/ZAC-II. The note with it: Gly 1 mM; data not shown.
Text: as §3
All cDNAs used for cRNA synthesis were inserted in the pUNIV vector. […]
On the day of the TEVC recording, all compound dilutions were prepared in a saline solution [115 mM NaCl, 2.5 mM KCl, 10 mM MOPS (pH 7.5), 1.8 mM CaCl2, 0.1 mM MgCl2], and pH was adjusted to 7.5 (if needed). […] Currents were recorded using pCLAMP 10 (Molecular Devices, Sunnyvale, CA). […]
In all recordings, compounds or compound combinations were applied in the bath until the peak current decayed to a steady state (up to 30 s). […] The antagonist properties of compounds were determined by pre-application of the compound to the perfusate for 30 s followed by co-application of the compound and the agonist. […]

[1] abbreviates: sustained (4 min) application of 100 μM 5-HT.
Setting [2] is: sustained (4 min) application of 3 μM 5-HT.

In the case of `NCCc1c[nH]c2ccc(O)cc12` [5-HT, 5-hydroxytryptamine], in the experiment on m5-HT3A^FPR/ZAC, the “concentration-response relationship compared to m5-HT3A/ZAC” value is listed as “not significantly different”. Further, the “Imax (current amplitude evoked by saturating agonist)” value amounted to 2.92 ± 0.13 μA at WT m5-HT3AR (300 μM 5-HT, n = 7) and 0.60 ± 0.19 μA on m5-HT3A/ZAC (3 μM 5-HT, n = 12). Moreover, on WT m5-HT3AR (agonist, n = 7), the “nH ± S.E.M. (Hill slope)” value was found to be 1.3 ± 0.3. In addition, the “Iresidual, 4 min” value at WT m5-HT3AR (setting [1]) was ~0 (none) % of Ipeak; at m5-HT3A/ZAC (setting [2]), 67 % of Ipeak and 67 ± 6 % of Ipeak. Also, the figures for the Δtstart-to-peak at WT m5-HT3AR (setting [1]) and at m5-HT3A/ZAC (setting [2]) were 2.1 ± 0.4 s and 46 ± 7.2 s, respectively. Moreover, the “time to complete return to baseline” value on WT m5-HT3AR (sustained application of 100 μM 5-HT, mean ± S.E.M., n = 7) is 98 ± 12 s. In addition, the values for the 5-HT-evoked current amplitudes at m5-HT3A/ZAC (high-expressing half of the oocytes) and at m5-HT3A/ZAC (low-expressing half of the oocytes) were 0.8–2.1 μA and 0.1–0.2 μA, respectively.

Regarding `NCC(=O)O` [Gly, glycine], the “I1 mM Gly ± S.E.M.” value in the experiment on hα1-Gly/ZAC was −0.0062 ± 0.0022 μA. On WT hα1 GlyR, the “Imax (current amplitude evoked by saturating agonist)” value amounted to 2.02 ± 0.24 μA, the Δtpeak-to-plateau worked out at 52 ± 5.9 s and the Δtstart-to-peak worked out at 2.7 ± 0.3 s. Further, in the experiment on hα1-Gly/ZAC-II, the agonist-evoked current entry is on record as “did not induce significant responses”.
